Laboratory results taken from PMC11521937, “Expression and characterization of pantothenate energy‐coupling factor transporters as an anti‐infective drug target” (Protein Science : A Publication of the Protein Society, 2024).
Read-outs that look alike come from different tables or passages of the source.

Experiments:
[1] = target: ECF‐module (EcfTAA′) (Streptococcus pneumoniae, UniProt A0A0H2ZPG6+Q04HV7+Q97N51); test: SPR binding to immobilized ECF‐module
From the text: After identifying the optimal buffer and assessing the stability of the ECF transporter proteins, we proceeded to determine the binding affinity (K d) of small‐molecule inhibitors using SPR. This label‐free technique allows for the investigation of protein–ligand interactions in real time and requires protein immobilization (GE Healthcare Life Science, [2012]). […] The ECF‐PanT, ECF‐module, and ECF‐FolT2, each bearing a histidine tag, were immobilized on a high‐affinity poly‐nitrilotriacetic acid (poly‐NTA) sensor chip, which was initially activated using NiCl2. The His‐tagged proteins were then injected over the Ni^2+‐activated surface to strongly bind to the metal (Knecht et al., [2009]). The immobilization resonance unit (RU) levels were 12,000–15,000 for ECF‐PanT, 9000–12,000 for the ECF‐module, and 6000–9000 for ECF‐FolT2.
In this assay, we used HEPES buffer (10 mM HEPES, 50 mM NaCl, 50 μM EDTA, 0.05% (v/v) DDM, and a pH value of 7.5) as recommended by Xantec Bioanalytics, with a slight modification made to create a more favorable environment for the ECF proteins, enabling their stability to be maintained throughout the assay. Additionally, the protein was maintained in the buffer containing 5% (v/v) DMSO. For a more in‐depth description of the procedures, please refer to Appendix S1.
Surface plasmon resonance (SPR)
The SPR binding studies were performed using a Reichert 4SPR surface plasmon resonance spectrometer (Reichert Technologies, Buffalo, NY, USA), and medium–density NTA derivatized polycarboxylate hydrogel NiHC200M sensor chips (XanTec Bioanalytics, Düsseldorf, Germany). The experimental procedure involved two rounds of nickel activation and one immobilization step at a concentration of 200 nM. The proteins ECF-module (92,56146 kDa), ECF-PanT (113,8745 kDa), and ECF-FolT2 (112,16316 kDa) were immobilized in flow cells 1, 2, and 3, respectively according to the standard protocol as provided by Xantec bioanalytics with a slight modification based on the recombinant proteins. The flow-cell 4 was left blank to serve as a reference.
The immobilization buffer employed for the immobilization process consisted of 10 mM HEPES with a pH of 7.5, 50 mM NaCl, 50 µM EDTA, and 0.05% DDM without DMSO. Following the immobilization step, for the binding study of the compounds, the running buffer was exchanged for the mentioned buffer with 5% v/v DMSO. This was done to ensure consistency in the percentage of DMSO present in the solutions containing the respective testing inhibitors, as these inhibitors were soluble in the DMSO solvent. By maintaining the same DMSO concentration, we aimed to minimize any potential solvent-related effects on the assay results. All running buffers were filtered and degassed before use.
The system was initially primed with 5 mM NiCl2 with an association and dissociation time of 2 min for each to activate the NTA sensor chip. Then, the recombinant proteins with a concentration of 200 nM were injected at a flow rate of 10 µL/min for 8 min. Finally, the baseline check with the running […]
the ECF-module, ECF-PanT, and ECF-FolT2, respectively.
First, the calibration curve for correction of the DMSO effect was prepared; the concentrations were 3%, 3.5% 4%, 4.5%, 5%, 5.5%, 6%, 6.5%, and 7% v/v and were diluted with SPR buffer. Then, the […]
concentration of DMSO in all the samples was set to 5% v/v DMSO. The samples (200 µL) were loaded on a 96-well plate and were injected at a flow rate of 50 μL/min. Single-cycle kinetics were applied for KD determination. The association time was set to 60 s, and the dissociation phase was recorded for 120 s. For surface regeneration, 0.35 M EDTA (pH 8.5) and 0.1 M NaOH were used. Data processing and analysis were performed by Scrubber software (Version 2.0c, 2008, BioLogic Software). Sensorgrams were calculated by sequential subtractions of the corresponding curves obtained from the reference flow cell and the running buffer (blank). SPR responses were expressed in the resonance unit (RU). The KD […]

[2] = In vitro MTT cytotoxicity assay, A549; format: cell-based, human; details: human, read-out: Percent (%) cell viability at 100 μM, A549 cells
Description: In vitro cytotoxicity evaluation […]
with minor modifications, which will be detailed below.
To obtain information regarding the toxicity of our compounds, their impact on the viability of human cells was investigated. HepG2 and A549 cells (2 × 10^4 cells per well) were seeded in 96-well, flat-bottomed culture plates in 100 µL culture medium (DMEM containing 10% fetal calve serum, 1% penicillin-streptomycin). Twenty-four hours after seeding the cells, medium was removed and replaced by medium containing test compounds in a final DMSO concentration of 1%. Compounds were tested in duplicates at a single concentration in 1% DMSO/medium. Epirubicin and doxorubicin were used as positive controls in serial dilutions starting from 10 µM, and rifampicin was used as a negative control (at 100 µM). The living cell mass was determined 48 h after treatment with compounds by adding 0.1 volumes of 3-(4,5-dimethylthiazol-2-yl)-2,5-diphenyltetrazolium bromide (MTT) solution (5 mg/mL sterile PBS) (Sigma, St. Louis, MO) to the wells. After incubating the cells for 30 min at 37 °C (atmosphere containing 5% CO2), medium was removed and MTT crystals were dissolved in 75 µL of a solution containing 10% SDS and 0.5% acetic acid in DMSO. The optical density (OD) of the samples was determined photometrically at 570 nm in a PHERAstar Omega plate reader (BMG labtech, Ortenberg, Germany). To obtain percent viability for each sample, their ODs were related to those of DMSO controls. At least two independent measurements were performed for each compound. The calculation of IC50 was performed using the nonlinear regression function of GraphPad Prism 10 (GraphPad Software, San Diego, CA, USA). […]

[3] = system: Lactobacillus casei; test: L. casei whole‐cell uptake assay; format: cell-based; details: Lacticaseibacillus casei

Chain of ECF‐module (EcfTAA′) (Q04HV7 whole entry): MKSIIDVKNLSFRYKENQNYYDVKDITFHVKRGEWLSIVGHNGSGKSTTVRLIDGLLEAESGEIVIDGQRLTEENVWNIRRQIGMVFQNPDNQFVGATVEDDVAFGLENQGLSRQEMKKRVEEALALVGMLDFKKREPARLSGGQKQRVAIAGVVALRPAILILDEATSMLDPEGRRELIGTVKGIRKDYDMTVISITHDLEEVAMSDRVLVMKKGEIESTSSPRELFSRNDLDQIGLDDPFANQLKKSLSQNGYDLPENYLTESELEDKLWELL
Chain of ECF‐module (EcfTAA′) (Q97N51 whole entry): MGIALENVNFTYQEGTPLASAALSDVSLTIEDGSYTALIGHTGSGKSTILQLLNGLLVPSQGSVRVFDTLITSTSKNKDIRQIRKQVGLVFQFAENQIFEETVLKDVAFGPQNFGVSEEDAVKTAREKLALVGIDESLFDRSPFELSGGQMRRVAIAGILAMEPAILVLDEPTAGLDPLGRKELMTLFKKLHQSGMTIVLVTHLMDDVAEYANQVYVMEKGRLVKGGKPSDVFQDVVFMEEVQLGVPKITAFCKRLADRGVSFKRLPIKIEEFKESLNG
Chain of ECF‐module (EcfTAA′) (A0A0H2ZPG6 entry or part of it): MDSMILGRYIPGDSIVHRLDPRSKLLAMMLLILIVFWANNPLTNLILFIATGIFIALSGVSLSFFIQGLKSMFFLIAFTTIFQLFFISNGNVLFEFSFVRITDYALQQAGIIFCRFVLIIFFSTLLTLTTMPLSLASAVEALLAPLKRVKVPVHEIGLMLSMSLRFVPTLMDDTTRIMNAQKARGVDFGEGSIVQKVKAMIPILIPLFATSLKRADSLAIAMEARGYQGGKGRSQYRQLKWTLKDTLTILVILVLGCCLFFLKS

Structure (SMILES) | Kd [1] [µM] | viability at 48 h, 100 µM [2] [%] | IC50 [3] [µM] | viability at 48 h, 100 µM ([2]; A549 cells) [%]
CC(C)(C)OC(=O)Nc1ccc(OCc2cccc3ccccc23)cc1C(=O)O [Compound 3] | > 200 | 86 ± 11 | – | –
O=C(O)c1cccc(NCc2ccc(-c3ccccc3Cl)o2)c1 [Compound 6] | > 200 | – | 285 ± 293 | 103 ± 7
O=C(O)c1cccc(NCc2ccc(-c3cccc(Cl)c3)o2)c1 [Compound 5] | > 200 | – | 247 ± 78 | 102 ± 17
O=C(O)c1cc(OCc2ccc(Br)c3ccccc23)ccc1O [Compound 2] | > 200 | – | – | –
O=C(O)c1cc(OCc2cccc3ccccc23)ccc1O [Compound 1] | > 200 | > 100 | – | –
O=C(O)c1cccc(NCc2ccc(-c3ccc(Cl)cc3)o2)c1 [Compound 4] | > 200 | – | 321 ± 200 | 80 ± 10
